# In patent publication EP1134585B1, “Biosensor and method for the monitoring of herbicides” (CONSIGLIO NAZIONALE DELLE RICERCHE, priority 2000, dated 2001):
# Columns and labels:
# D1 protein Phe255->Tyr = D1 protein Phe255->Tyr (Chlamydomonas reinhardtii, UniProt P07753, F255Y); conditions: code Ar207+; cited from earlier work
# [1] = tested on: thylakoids from Amaranthus retroflexus, Wild-type; assay: Biosensor fluorescence response (Table D), wild-type biomediator; type: biochemical; conditions: herbicide concentration 10^-6 M
# [2] = tested on: thylakoids from Amaranthus retroflexus, Mutant; type: biochemical; conditions: herbicide concentration 10^-6 M
# Tyr222->Phe = conditions: code T4; cited from earlier work
# D1 protein Ser284->Gly = conditions: Chenopodium album; cited from earlier work
# Gly228->Arg = conditions: cited from earlier work
# Phe216->Leu = conditions: cited from earlier work
# Ile229->Thr = conditions: cited from earlier work
# PhC2,6―Pro = conditions: cited from earlier work
# I1e228->Leu = conditions: cited from earlier work
# Gly228->Val = conditions: cited from earlier work
# Thr226->Ala = conditions: cited from earlier work
# I1e229→Met = conditions: R. capsulatus; cited from earlier work
# Thr226->Met = conditions: cited from earlier work
# Ile229->Ser = conditions: cited from earlier work
# GluM34->Lys = conditions: code M6; cited from earlier work
# Tyr222->Gly = conditions: code YG222; cited from earlier work
# -Phe216→Ser = conditions: code T6; cited from earlier work
# Arg217→His Ser223→Ala = conditions: double mutant Arg217→His Ser223→Ala; cited from earlier work
# Ile229->Met~.Met = conditions: code M29; cited from earlier work
# Gly192->Asp = conditions: cited from earlier work
# Phe216→Ser ValM263→Phe = conditions: double mutant Phe216→Ser ValM263→Phe, code T3; cited from earlier work
# [3] = biological target: D1 protein Ala250→Ser Phe255→IIe (Chlamydomonas reinhardtii, UniProt P07753, A250S/F255I); conditions: cited from earlier work
# D1 protein A1a250→IIe = D1 protein A1a250→IIe (Chlamydomonas reinhardtii, UniProt P07753, A250I); conditions: cited from earlier work
# Ser223->Pro = conditions: code SP223; cited from earlier work
# D1 protein Ala250->Asp = D1 protein Ala250->Asp (Chlamydomonas reinhardtii, UniProt P07753, A250D); conditions: cited from earlier work
# [4] = biological target: D1 protein Phe211→Gly Met214→Gln (Chlamydomonas reinhardtii, UniProt P07753, F211G/M214Q); conditions: cited from earlier work
# D1 protein Ser264->Thr = conditions: Nicotiana tabacum (cell culture); cited from earlier work
# [5] = tested on: D1 protein Val219->Ile Thr220->Ala Ser270->Tyr; conditions: code L5; cited from earlier work
# [6] = biological target: D1 protein Phe255->Tyr Ser264->Ala (Synechococcus elongatus, UniProt P04996, F255Y/S264A); conditions: code D5; cited from earlier work
# Phe216->Thr = conditions: cited from earlier work
# I1e229->Cys = conditions: cited from earlier work
# D1 protein Ala250->Asn = D1 protein Ala250->Asn (Chlamydomonas reinhardtii, UniProt P07753, A250N); conditions: cited from earlier work
# Phe216→Val = conditions: cited from earlier work
# monoclonal antibodies = conditions: ELISA (Schneider et al. 1994); cited from earlier work
# D1 protein Ala250->Arg = D1 protein Ala250->Arg (Chlamydomonas reinhardtii, UniProt P07753, A250R); conditions: cited from earlier work
# D1 protein A1a250->Tyr = D1 protein A1a250->Tyr (Chlamydomonas reinhardtii, UniProt P07753, A250Y); conditions: cited from earlier work
# PS II = PS II treated with CdCl2, refrigeration at 5°C, flow 0,2-2,0 ml/m
# From the text: To further increase the stability of the biomediator the usefulness of a system for the refrigeration of the solution containing herbicide forwarded into the measuring cell experimentally was observed.
# Ile229->Met = conditions: R. shaeroides; cited from earlier work
# D1 protein A1a251->Cys = D1 protein A1a251->Cys (Chlamydomonas reinhardtii, UniProt P07753, A251C); conditions: cited from earlier work
# I1e229->Ala = conditions: cited from earlier work
# D1 protein Lysa)238->Val = D1 protein Lysa)238->Val (Synechocystis sp., UniProt P16033, K238V); conditions: Lysa)238->Val (Arg in other organisms); cited from earlier work
# D1 protein Ser264->Ala = D1 protein Ser264->Ala (Chlamydomonas reinhardtii, UniProt P07753, S264A); conditions: codes MZ1 MZ3 MZ5; cited from earlier work
# D1 protein A1a250->His = D1 protein A1a250->His (Chlamydomonas reinhardtii, UniProt P07753, A250H); conditions: cited from earlier work
# [7] = tested on: PS II isolated from thermophilic cyanobacteria; conditions: immobilized PS II, Clark electrode (Koblizek et al.); cited from earlier work
structure (smiles),measurement,setting,value
CNC(=O)Nc1nc2ccccc2s1 [Benzthiazuron],Supersensitivity R/S,D1 protein Phe255->Tyr,"0,3"
CNc1nc(NC(C)C)nc(SC)n1 [Desmetryn],Area % inhibition Wild-type,[1],92%
same,Area % inhibition Mutant,[2],10%
same,Resistance R/S,Tyr222->Phe,Desmetryn 50
CC(C)N1C(=O)c2ccccc2NS1(=O)=O [Bentazon],Supersensitivity R/S,D1 protein Ser284->Gly,"Bentazon 0,5"
CCNc1nc(NC(C)C)nc(SC)n1 [Ametryn],Resistance R/S,Gly228->Arg,Ametryn 4
same,Area % inhibition Wild-type,[1],99%
same,Resistance R/S,Phe216->Leu,"Ametryn 3,1"
same,Area % inhibition Mutant,[2],21%
same,Resistance R/S,Ile229->Thr,"Ametryn 1,9"
same,Resistance R/S,"PhC2,6―Pro","Ametryn 1,9"
same,Resistance R/S,I1e228->Leu,"Ametryn 2,5"
same,Resistance R/S,Gly228->Val,"Ametryn 5,3"
same,Resistance R/S,Thr226->Ala,Ametryn 4
same,Resistance R/S,I1e229→Met,"Ametryn 5,3"
same,Resistance R/S,Tyr222->Phe,Ametryn 330
same,Resistance R/S,Thr226->Met,"Ametryn 2,5"
CCNc1nc(NC(C)(C)C)nc(SC)n1 [Terbutryn],Resistance R/S,Gly228->Arg,"Terbutryn 1,3"
same,Supersensitivity R/S,Ile229->Ser,"Terbutryn 0,4"
same,Resistance R/S,GluM34->Lys,Terbutryn > 125
same,Resistance R/S,Tyr222->Gly,Terbutryn >3000
same,Resistance R/S,-Phe216→Ser,Terbutryn >2800
same,Resistance R/S,Arg217→His Ser223→Ala,Terbutryn 222
same,Resistance R/S,Gly228->Val,"Terbutryn 1,5"
same,Resistance R/S,Ile229->Met~.Met,Terbutryn 120
same,Resistance R/S,Thr226->Ala,"Terbutryn 1,7"
same,Supersensitivity R/S,Thr226->Ala,"Terbutryn 0,6(?)"
same,Resistance R/S,Gly192->Asp,Terbutryn 300
same,Resistance R/S,Phe216→Ser ValM263→Phe,Terbutryn 166
same,Supersensitivity R/S,[3],"0,9"
same,Supersensitivity R/S,D1 protein A1a250→IIe,"Terbutryn 0,5"
same,Resistance R/S,Ser223->Pro,Terbutryn >3000
same,Resistance R/S,I1e229→Met,"Terbutryn 1,9"
same,Supersensitivity R/S,D1 protein Ala250->Asp,"Terbutryn 0,4"
same,Resistance R/S,Thr226->Met,"Terbutryn 1,7"
Cc1nnc(-c2ccccc2)c(=O)n1N [Metamitron],Supersensitivity R/S,D1 protein Phe255->Tyr,"Metamitron 0,3"
same,Supersensitivity R/S,[4],"0,4"
CCC(C)c1cc([N+](=O)[O-])cc([N+](=O)[O-])c1O (centres unmarked) [Dinoseb],Area % inhibition Wild-type,[1],99%
same,Supersensitivity R/S,D1 protein Ser264->Thr,"Dinoseb 0,13"
same,Supersensitivity R/S,[5],"Dinoseb 0,7"
same,Area % inhibition Mutant,[2],93%
same,Supersensitivity R/S,[6],"0,08"
CCNc1nc(Cl)nc(NC(C)C)n1 [Atrazine],Resistance R/S,Gly228->Arg,"Atrazine 5,4"
same,Area % inhibition Wild-type,[1],96%
same,Resistance R/S,Phe216->Leu,"Atrazine 4,2"
same,Resistance R/S,Ile229->Ser,"Atrazine 1,8"
same,Resistance R/S,Phe216->Thr,"Atrazine 3,5"
same,Area % inhibition Mutant,[2],15%
same,Resistance R/S,Ile229->Thr,"Atrazine 3,7"
same,Resistance R/S,"PhC2,6―Pro","Atrazine 1,9"
same,Resistance R/S,I1e228->Leu,"Atrazine 3,5"
same,Resistance R/S,Gly228->Val,"Atrazine 4,2"
same,Resistance R/S,I1e229->Cys,Atrazine 2
same,Resistance R/S,Thr226->Ala,"Atrazin 3,1"
same,Supersensitivity R/S,D1 protein Ala250->Asn,"Atrazine 0,3"
same,Resistance R/S,Gly192->Asp,Atrazine 6
same,Resistance R/S,Phe216→Val,"Atrazine 1,8"
same,sensitivity,monoclonal antibodies,100 pM
same,Supersensitivity R/S,D1 protein Ala250->Arg,Atrazin 0.25
same,Supersensitivity R/S,D1 protein A1a250->Tyr,"Atrazine 0,4"
same,sensitivity (concentration),PS II,lower than nanomolar
same,Supersensitivity R/S,[3],"Atrazine 0,5"
same,Supersensitivity R/S,D1 protein A1a250→IIe,"Atrazine 0,5"
same,Resistance R/S,Ile229->Met,Atrazine >7
same,Supersensitivity R/S,D1 protein A1a251->Cys,"Atrazin 0,8"
same,Resistance R/S,I1e229->Ala,"Atrazine 1,8"
same,Resistance R/S,I1e229→Met,"Atrazine 5,4"
same,Resistance R/S,Tyr222->Phe,Atrazine >600
same,Supersensitivity R/S,D1 protein Ala250->Asp,"Atrazine 0,25"
same,Resistance R/S,Thr226->Met,"Atrazine 3,1"
same,Supersensitivity R/S,D1 protein Lysa)238->Val,"Atrazine 0,6"
CC(C)Cc1cc([N+](=O)[O-])cc([N+](=O)[O-])c1O [i-Dinoseb],Supersensitivity R/S,D1 protein Ser264->Ala,"i-Dinoseb 0,7"
N#Cc1cc(Br)c(O)c(Br)c1 [Bromoxynil],Area % inhibition Wild-type,[1],97%
same,Supersensitivity R/S,D1 protein A1a250->His,"Bromoxynil 0,16"
same,sensitivity,[7],10^-7 mol/l
same,Area % inhibition Mutant,[2],95%
same,Supersensitivity R/S,D1 protein Ala250->Asn,"Bromoxynil 0,2"
same,Supersensitivity R/S,D1 protein Ala250->Arg,"Bromoxynil 0,3"
same,Supersensitivity R/S,D1 protein A1a250->Tyr,"Bromoxynil 0,4"
same,sensitivity (concentration),PS II,one order of magnitude higher
same,Supersensitivity R/S,[3],"0,2"
same,Supersensitivity R/S,D1 protein A1a250→IIe,"Bromoxynil 0,3"
same,Supersensitivity R/S,D1 protein Ala250->Asp,"Bromoxynil 0,16"
same,Supersensitivity R/S,[6],"0,8"
COc1nc(NC(C)C)nc(NC(C)C)n1 [Prometon],Resistance R/S,Gly228->Arg,"Prometon 1,2"
same,Resistance R/S,Phe216->Leu,"Prometon 1,8"
same,Resistance R/S,Ile229->Thr,"Prometon 1,2"
same,Resistance R/S,"PhC2,6―Pro","Prometon 1,8"
same,Resistance R/S,Gly228->Val,"Prometon 1,3"
same,Resistance R/S,Thr226->Ala,"Prometon 1,8"
same,Resistance R/S,I1e229->Ala,"Prometron 1,2"
same,Resistance R/S,I1e229→Met,"Prometron 1,2"
CCC(C)n1c(=O)[nH]c(C)c(Br)c1=O (centres unmarked) [Bromacil],Supersensitivity R/S,D1 protein Phe255->Tyr,"Bromacil 0,9"
CCNc1nc(Cl)nc(NCC)n1 [Simazine],Area % inhibition Wild-type,[1],95%
same,Area % inhibition Mutant,[2],14%
same,sensitivity (concentration),PS II,lower than nanomolar
CSc1nc(NC(C)C)nc(NC(C)C)n1 [Prometryn],Resistance R/S,Gly228->Arg,"Prometryn 1,1"
same,Resistance R/S,Phe216->Leu,"Prometryn 1,4"
same,Resistance R/S,Ile229->Thr,"Prometryn 1,4"
same,Resistance R/S,Gly228->Val,"Prometryn 1,4"
same,Resistance R/S,Thr226->Ala,"Prometryn 1,4"
same,Resistance R/S,I1e229→Met,Prometryn 2
same,Resistance R/S,Thr226->Met,"Prometryn 1,1"
CNC(=O)N(C)c1nc2ccccc2s1 [Metabenzthiazuron],Supersensitivity R/S,D1 protein Phe255->Tyr,"zuron 0,3"
c1cnc2c(c1)ccc1cccnc12 [o-Phenanthroline],Resistance R/S,Ile229->Ser,"o-Phenanthroline 1,3"
same,Resistance R/S,GluM34->Lys,o-Phenanthroline >25
same,Resistance R/S,Tyr222->Gly,o-Phenanthroline 26
same,Resistance R/S,-Phe216→Ser,o-Phenanthroline 333
same,Resistance R/S,Arg217→His Ser223→Ala,o-Phenanthroline 5
same,Resistance R/S,Ile229->Met~.Met,o-Phenanthro me 11
same,Supersensitivity R/S,Thr226->Ala,"line 0,03"
same,Resistance R/S,Gly192->Asp,o-Phenanthroline 3
same,Resistance R/S,Phe216→Ser ValM263→Phe,o-Phenathroline 67
same,Resistance R/S,Ser223->Pro,"o-Phenanthroline 6,25"
same,Resistance R/S,Tyr222->Phe,o-Phenanthroline 10
COC(=O)Nc1cccc(OC(=O)Nc2cccc(C)c2)c1 [Phenmedipham],Supersensitivity R/S,D1 protein A1a251->Cys,"0,8"
